From US11400106B2, “Methods for inhibiting microbe growth” (priority 2018, dated 2022)
Where two headings read alike, the source gives them in different places. Where a SMILES comes first, the peptide text is derived from it.

Key:
[1] = system: E. coli; test: microbe, parasite or virus in culture; assay type: cell-based, Escherichia coli; conditions: for MIC: Escherichia coli, 18 h, read-out: MIC, E. coli, MHB−; for Fold, E. coli: fold shift in MIC
Description: (§1) In the following experiments, bacterial cells were cultured in 96-well microtiter plates in cation-adjusted Mueller-Hinton Broth (MHB) for 18 h at 37° C. The main strains used were E. coli (K-12 BW25113) (placed in stationary incubator) and S. aureus (Newman Strain) (incubated at 250 r.p.m). Knockout strains (ΔtolcC and ΔychM) were used from the Keio knockout collection (Baba et al., Construction of Escherichia coli K-12 in-frame, single-gene knockout mutants: the Keio collection. Mol Syst Biol 2, 2006 0008, doi:10.1038/msb4100050 (2006)). For MIC determination and checkerboard analyses, Clinical & Laboratory Standards Institute (CLSI) protocol was used. […] DiSC3 loading of S. aureus cells was performed as previously described (Farha et al., Collapsing the proton motive force to identify synergistic combinations against Staphylococcus aureus. Chemistry & biology 20, 1168-1178, doi:10.1016/j.chembiol.2013.07.006 (2013)). CCCP concentration of 20 μM was used. pH adjustments were made by addition of HCl or NaOH. INT assay and ATP bioluminescence assays were performed as previously described (Farha et al., Collapsing the proton motive force to identify synergistic combinations against Staphylococcus aureus. Chemistry & biology 20, 1168-1178, doi:10.1016/j.chembiol.2013.07.006 (2013)). For chemical-genomic studies, the Keio library was grown overnight in cation-adjusted MHB broth, in 384-well plates. From these, treatment plates (25 mM sodium bicarbonate, or a sterile water control) were inoculated and grown for 15 hours at 37° C., in a stationary incubator. Data was normalized according to Mangat et al (Mangat et al., Rank ordering plate data facilitates data visualization and normalization in high-throughput screening. J Biomol Screen 19, 1314-1320, doi:10.1177/1087057114534298 (2014)), with gene products and GO terms mined from EcoCyc. The GFP promoter library (Keseler et al., EcoCyc: fusing model organism databases with systems biology. Nucleic Acids Res 41, D605-612, doi:10.1093/nar/gks1027 (2013)) was grown for 18 hours at ambient temperature with the same inoculation strategy as with the Keio collection. The analysis pipeline of Zaslaver et al (Zaslaver et al., A comprehensive library of fluorescent transcriptional reporters for Escherichia coli. Nat Methods 3, 623-628, doi:10.1038/nmeth895 (2006)) was used to generate maps of promoter activity, from which lists of promoters with increased or decreased activity were compiled.
(§2) Fold enhancement in MICs in the media supplemented with sodium bicarbonate is represented by a positive fold, whereas suppression of activity is represented by a negative fold.
(§3) The effect of sodium bicarbonate on the activity of additional antibacterial agents was investigated. Clinical isolates of various bacteria were obtained from the ATCC and the IHMA.
(§4) The effect of sodium bicarbonate on the activity of cationic antiseptic agents was investigated. Clinical isolates of various bacteria were obtained from the ATCC and the IHMA.

[2] = system: S. aureus; test: microbe, parasite or virus in culture; conditions: for MIC: Staphylococcus aureus, read-out: MIC, S. aureus, MHB−; for Fold, S. aureus: fold shift in MIC
Description: as §1, §2, §3, §4

[3] = antibiotic agents, MHB in the absence of sodium bicarbonate
[4] = MHB in the absence of sodium bicarbonate
[5] = antiseptic agents, MHB in the absence of sodium bicarbonate
[6] = antiseptic agents, MHB in the presence of 25 mM sodium bicarbonate

Row | SMILES | MIC, E. coli, MHB+ [1] | MIC, S. aureus, MHB+ [2] | MIC ([2]; 18 h) [µg/mL] | MIC [1, 4] [µg/mL] | also measured
1 | NCC[C@H](O)C(=O)N[C@@H]1C[C@H](N)[C@@H](O[C@H]2O[C@H](CN)[C@@H](O)[C@H](O)[C@H]2O)[C@H](O)[C@H]1O[C@H]1O[C@H](CO)[C@@H](O)[C@H](N)[C@H]1O [Amikacin] | 4 μg of antimicrobial agent/mL of buffer | 8 μg of antimicrobial agent/mL of buffer | 4 | – | MIC [1, 3]: 4 µg/mL
2 | CC1(C)S[C@@H]2[C@H](NC(=O)[C@H](N)c3ccc(O)cc3)C(=O)N2[C@H]1C(=O)O [Amoxicillin] | – | 1 | 0.25 | – | MIC [1]: 8 µg/mL
3 | CC1(C)S[C@@H]2[C@H](NC(=O)[C@H](N)c3ccccc3)C(=O)N2[C@H]1C(=O)O [Ampicillin] | – | 8 | 1 | 16 | –
4 | CN[C@@H]1[C@@H](O[C@H]2O[C@H](CO)[C@@H](N)[C@H](O)[C@H]2O)OC2C[C@@H](N)[C@@H](O[C@H]3[C@H](O)[C@@H](O)[C@H](N)C[C@@H]3N)OC2[C@@H]1O (stereo partly drawn) [Apramycin] | – | 32 | 16 | 32 | –
5 | CC[C@H](C)[C@H](N)C1=N[C@H](C(=O)N[C@@H](CC(C)C)C(=O)N[C@H](CCC(=O)O)C(=O)N[C@H](C(=O)N[C@H]2CCCCNC(=O)[C@H](CC(N)=O)NC(=O)[C@@H](CC(=O)O)NC(=O)[C@H](Cc3cnc[nH]3)NC(=O)[C@@H](Cc3ccccc3)NC(=O)[C@H]([C@@H](C)CC)NC(=O)[C@@H](CCCN)NC2=O)[C@@H](C)CC)CS1 [Bacitracin] (HELM PEPTIDE1{[CC[C@H](C)[C@H](N)C1=N[C@H](C(=O)[*:2])CS1].L.[dE].I.K.[NCCC[C@@H](N[*:1])C(=O)[*:2]].I.[dF].H.[dD].N}$PEPTIDE1,PEPTIDE1,5:R3-11:R2$$$V2.0) | – | 64 | 32 | > 256 | –
6 | CC[C@H](C)[C@@H]1NC(=O)[C@H](CCCNC(=N)N)NC(=O)[C@@H](NC(=O)[C@H](CC(C)C)NC(=O)[C@@H](N)CCCNC(=N)N)CSSC[C@@H](C(=O)N[C@@H](CCCNC(=N)N)C(=O)O)NC(=O)[C@H](C(C)C)NC(=O)[C@H](CCCNC(=N)N)NC(=O)[C@H]([C@@H](C)CC)NC(=O)[C@H](C(C)C)NC(=O)[C@H](C(C)C)NC1=O [Bactenesin] (HELM PEPTIDE1{R.L.C.R.I.V.V.I.R.V.C.R}$PEPTIDE1,PEPTIDE1,3:R3-11:R3$$$V2.0; N-terminus and C-terminus assumed; bridges inferred) | – | – | – | – | enhancement of antimicrobial activity in the presence of bicarbonate [1]: 256 fold; MIC in MHB ([2]; Newman, 18 h): 128 µg/mL; MIC in MHB + 25 mM bicarbonate ([2]; Newman, 18 h): 0.5 µg/mL
7 | NC(=O)c1ccccc1 [Benzamide] | >128 μg of antimicrobial agent/mL of buffer | >128 μg of antimicrobial agent/mL of buffer | > 128 | – | MIC [1, 3]: > 128 µg/mL
8 | N[C@@H]1CCCCN(c2c(F)cc3c(=O)c(C(=O)O)cn(C4CC4)c3c2Cl)C1 [Besifloxacin] | – | 0.25 | 0.125 | 0.25 | effect of 25 mM sodium bicarbonate on antibacterial activity [1]: increased
9 | N[C@@H](C(=O)N[C@@H]1C(=O)N2C(C(=O)O)=C(Cl)CS[C@H]12)c1ccccc1 [Cefaclor] | 4 μg of antimicrobial agent/mL of buffer | 8 μg of antimicrobial agent/mL of buffer | 2 | – | MIC [1, 3]: 4 µg/mL
10 | CCN1CCN(C(=O)N[C@@H](C(=O)N[C@@H]2C(=O)N3C(C(=O)O)=C(CSc4nnnn4C)CS[C@H]23)c2ccc(O)cc2)C(=O)C1=O [Cefoperazone] | – | 4 | 0.25 | 0.125 | –
11 | CO/N=C(\C(=O)N[C@@H]1C(=O)N2C(C(=O)O)=C(COC(C)=O)CS[C@H]12)c1csc(N)n1 [Cefotaxime] | 8 μg of antimicrobial agent/mL of buffer | 2 μg of antimicrobial agent/mL of buffer | 0.5 | – | MIC [1, 3]: 4 µg/mL
12 | CO/N=C(\C(=O)N[C@@H]1C(=O)N2C(C(=O)O)=C(CSc3nc(=O)c(=O)[nH]n3C)CS[C@H]12)c1csc(N)n1 [Ceftriaxone] | – | 16 | 4 | 0.625 | –
13 | CCCCCCCCCCCCCCCC[N+](C)(C)C.[Br-] [Cetrimodium bromide] | – | – | – | – | MIC, E. coli, MHB [1, 5]: >128 μg of antimicrobial agent/mL of buffer; MIC, E. coli, MHB+ [1, 6]: 32 μg of antimicrobial agent/mL of buffer; Fold, E. coli ([1]; antiseptic agents): 4; MIC, S. aureus, MHB [2, 5]: 16 μg of antimicrobial agent/mL of buffer; MIC, S. aureus, MHB+ [2, 6]: 4 μg of antimicrobial agent/mL of buffer; Fold, S. aureus ([2]; antiseptic agents): 4
14 | O=C(N[C@H](CO)[C@H](O)c1ccc([N+](=O)[O-])cc1)C(Cl)Cl [Chloramphenicol] | – | 8 | 8 | 8 | effect of 25 mM sodium bicarbonate on antibacterial activity [1]: remained largely unchanged; effect of 25 mM sodium bicarbonate on antibacterial activity ([2]; S. aureus, result in words): remained largely unchanged
15 | [H]/N=C(\N/C(=N/[H])NCCCCCCNC(=N)NC(=N)Nc1ccc(Cl)cc1)Nc1ccc(Cl)cc1 [Chlorhexidine] | 0.125 μg of antimicrobial agent/mL of buffer | 0.0625 μg of antimicrobial agent/mL of buffer | – | – | MIC, E. coli, MHB [1]: 0.5 μg of antimicrobial agent/mL of buffer; MIC, S. aureus, MHB [2]: 0.5 μg of antimicrobial agent/mL of buffer
16 | CC[C@H]1OC(=O)[C@H](C)[C@@H](O[C@H]2C[C@@](C)(OC)[C@@H](O)[C@H](C)O2)[C@H](C)[C@@H](O[C@@H]2O[C@H](C)C[C@H](N(C)C)[C@H]2O)[C@](C)(OC)C[C@@H](C)C(=O)[C@H](C)[C@@H](O)[C@]1(C)O [Clarithromycin] | 8 μg of antimicrobial agent/mL of buffer | 0.062 μg of antimicrobial agent/mL of buffer | 0.5 | – | MIC [1, 3]: 64 µg/mL
17 | CCC[C@@H]1C[C@@H](C(=O)N[C@@H]([C@H]2O[C@H](SC)[C@H](O)[C@@H](O)[C@H]2O)[C@H](C)Cl)N(C)C1 [Clindamycin] | 128 μg of antimicrobial agent/mL of buffer | 0.12 μg of antimicrobial agent/mL of buffer | 0.25 | – | MIC [1, 3]: 128 µg/mL
18 | Cc1onc(-c2ccccc2Cl)c1C(=O)N[C@@H]1C(=O)N2[C@@H]1SC(C)(C)[C@@H]2C(=O)O [Cloxacillin] | – | 0.5 | 0.031 | 256 | –
19 | N=C(N)c1ccc(OCCCOc2ccc(C(=N)N)cc2Br)c(Br)c1.O=S(=O)(O)CCO.O=S(=O)(O)CCO [Dibrompropamidine diisetionate] | – | – | – | – | MIC, E. coli, MHB [1, 5]: 64 μg of antimicrobial agent/mL of buffer; MIC, E. coli, MHB+ [1, 6]: 16 μg of antimicrobial agent/mL of buffer; Fold, E. coli ([1]; antiseptic agents): 4; MIC, S. aureus, MHB [2, 5]: 4 μg of antimicrobial agent/mL of buffer; MIC, S. aureus, MHB+ [2, 6]: 1 μg of antimicrobial agent/mL of buffer; Fold, S. aureus ([2]; antiseptic agents): 4
20 | CC[C@H]1OC(=O)[C@H](C)[C@@H](O[C@H]2C[C@@](C)(OC)[C@@H](O)[C@H](C)O2)[C@H](C)[C@@H](O[C@@H]2O[C@H](C)C[C@H](N(C)C)[C@H]2O)[C@](C)(O)C[C@@H](C)C(=O)[C@H](C)[C@@H](O)[C@]1(C)O [Erythromycin] | – | 1 | 32 | – | –
21 | CC[C@H](C)[C@H](N)C(=O)N[C@@H](CC(C)C)C(=O)N1CCC[C@H]1C(=O)N[C@@H](Cc1c[nH]c2ccccc12)C(=O)N[C@@H](CCCCN)C(=O)N[C@@H](Cc1c[nH]c2ccccc12)C(=O)N1CCC[C@H]1C(=O)N[C@@H](Cc1c[nH]c2ccccc12)C(=O)N[C@@H](Cc1c[nH]c2ccccc12)C(=O)N1CCC[C@H]1C(=O)N[C@@H](Cc1c[nH]c2ccccc12)C(=O)N[C@@H](CCCNC(=N)N)C(=O)N[C@@H](CCCNC(=N)N)C(N)=O [Indolicidin] | – | – | – | – | enhancement of antimicrobial activity in the presence of bicarbonate ([2]; S. aureus, 25 mM sodium bicarbonate): 16 fold
22 | Cc1ncc([N+](=O)[O-])n1CCO [Metronidazole] | – | – | > 128 | – | –
23 | O=C([O-])O.[K+] [Potassium bicarbonate] | – | – | – | – | MIC of dirithromycin in the presence of the salt ([1]; E. coli, salt at 25 mM, pH adjusted to 7.4): 4 µg/mL
